Measurements reported in US20220280594A1, “APPLICATION OF POLYPEPTIDE OR DERIVATIVE THEREOF” (CHENGDU HUITAI BIOMEDICINE CO., LTD., priority 2019, published 2022).
Ends that are not written are not given here. PEG = not defined here

Tests used:
[1] = test system: human breast cancer cells (MCF-7); assay: scratch assay, migration of MCF-7 cells; assay type: cell-based; settings: MCF-7, 10 μM, 48 hours; control group 30.97 ± 1.79
Description: (§1) In the scratch assay, the cell migration rate was negatively correlated with the inhibitory effect of the drug component on tumor cell migration ability. The cell migration inhibition experiment was described as follows: tumor cells were cultured in vitro, cells in logarithmic growth phase were collected and seeded evenly in a 24-well plate at a density of 1-2×10^5 cells/well; the cells were cultured in a cell incubator until a monolayer was formed; a scratch tool was used to make a “-” (straight) scratch on the monolayer of cells; the cells were washed 1-3 times with PBS, and a medium (with 2% fetal bovine serum) containing specific test components was added to the culture. Experimental grouping: PBS control group; polypeptide or derivative thereof treatment group (N1-N54), 10 μM. Three independent parallel wells were set up in each group, and the cells were cultured continuously in a cell incubator for 48 hours. […] At least 3 representative images for each well were taken. ImageJ software was used to count the migration distance of the cells, and the cell migration rate was calculated as: cell migration rate (%)=(width of original scratch−width of current scratch)/width of original scratch×100.
This example was a scratch assay to evaluate the inhibitory effect of the polypeptide or derivative thereof (N1-N54) on the migration ability of human breast cancer cells (MCF-7). The experimental method was as described in Example 2.

[2] = test system: human lung cancer cells (A549) subcutaneous xenograft; assay: lung cancer subcutaneous xenograft animal model, intratumoral injection; assay type: in vivo, mice (BALB/c-nu/nu); settings: intratumoral 5 mg/kg once every other day, 20 days; for Weight of tumor (g) (mean ± SD): control 1.92 ± 0.13; for Volume of tumor (mm^3) (mean ± SD): control 1700.16 ± 305.72
Description: Experimental animals: 4-6 weeks old female immunodeficiency mice (BALB/c-nu/nu, Beijing Vital River Laboratory Animal Technology Co., Ltd.).
Subcutaneous xenograft animal model. The number of cells inoculated subcutaneously vin mice was about 2×10^6/200 μL. When the volume of the subcutaneous tumor was greater than 100 mm^3, the mice were randomly divided into groups and subjected to treatment. When the mass volume of the tumors in model control group reached 2000 mm^3 or the animal dies, the treatment ended. The animals were dissected, the tumors were taken out, and the weight and volume of the tumors were measured. During the period of the entire experiment, the mice were observed and the body weight was measured every other day.
The method used for the drug efficacy test in the animal model of the subcutaneous xenograft derived from lung cancer cells was as described in Example 5. The tumor cells were human lung cancer cells (A549), and the route of administration was intratumoral injection. There were two groups: the model control group and the polypeptide or its derivative treatment group (N1-N12). The drug dosage of the treatment group was 5 mg/kg, once every other day and the treatment time was 10 days.
The procedure of the efficacy test in this example, route and dosage of administration were the same as in Example 9. The peptides used in the experiment were N13-N32. The treatment time was 20 days.

[3] = test system: human breast cancer cells (MDA-MB-453); assay: scratch assay, migration of MDA-MB-453 cells; assay type: cell-based; settings: MDA-MB-453, 10 μM, 48 hours; control group 32.42 ± 2.04
Description: as §1
This example was a scratch assay to evaluate the inhibitory effect of the polypeptide or derivative thereof (N1-N54) on the migration ability of human breast cancer cells (MDA-MB-453). The experimental method was as described in Example 2.

[4] = test system: human non-small cell lung cancer cells (A549); assay: scratch assay, migration of A549 cells; assay type: cell-based; settings: A549, 10 μM, 48 hours; control group 75.31 ± 8.19
Description: as §1
This example was a scratch assay to evaluate the inhibitory effect of the polypeptide or derivative thereof (N1-N54) on the migration ability of human non-small cell lung cancer (A549). The experimental method was as described in Example 2.

[5] = test system: human liver cancer cells (HepG2); assay: scratch assay, migration of HepG2 cells; assay type: cell-based; settings: HepG2, 10 μM, 48 hours; control group 71.01 ± 6.63
Description: as §1
This example was a scratch assay to evaluate the inhibitory effect of the polypeptide or derivative thereof (N1-N54) on the migration ability of human liver cancer cells (HepG2). The experimental method was as described in Example 2.

[6] = test system: human oral epidermoid carcinoma KB cells; assay: scratch assay, migration of KB cells; assay type: cell-based; settings: 10 μM, 48 hours, control group 54.03 ± 4.21
Description: as §1
This example was a scratch assay to evaluate the inhibitory effect of the polypeptide or derivative thereof (N1-N54) on the migration ability of human oral epidermoid carcinoma cells (KB). The experimental method was as described in Example 2.

| Substance | Migration rate (%) (mean ± SD, P) [1] | Weight of tumor (g) (mean ± SD) [2] | Volume of tumor (mm^3) (mean ± SD) [2] | Migration rate (%) (mean ± SD, P) [3] | Migration rate (%) (mean ± SD, P) [4] | Migration rate (%) (mean ± SD, P) [5] | Migration rate (%) (mean ± SD, P) [6] |
| --- | --- | --- | --- | --- | --- | --- | --- |
| N23: SEQ ID NO: 1 with substitution A7R, deletion of position 11 and of positions 15-18 (YRVRFLRKENTQDAED) | 10.20 ± 2.86,** % | 0.83 ± 0.29 g | 838.73 ± 218 mm^3 | 18.2 ± 3.53,** % | 26.03 ± 4.21,*** % | 17.22 ± 7.12,*** % | 10.57 ± 1.7,*** % |
| N24: SEQ ID NO: 1 with substitution A7R, deletion of positions 1-2 and of position 18 (VRFLRKENVTQDAED) | 9.43 ± 1.12,** % | 0.83 ± 0.29 g | 908.37 ± 256.24 mm^3 | 15.84 ± 4.44,* % | 31.05 ± 3.60,** % | 16.38 ± 6.48,*** % | 24.03 ± 4.21,* % |
| N25: SEQ ID NO: 1 with substitution N18R and addition of two amino acids at the carboxyl terminal (YRVRFLAKENVTQDAEDRCT) | 9.16 ± 2.51,** % | 0.71 ± 0.18 g | 958.87 ± 351.9 mm^3 | 21.05 ± 2.53,* % | 34.66 ± 7.73,** % | 14.22 ± 7.10,*** % | 18.32 ± 2.63,** % |
| N26: SEQ ID NO: 1 with substitution A15R, addition of one amino acid at the amino terminal and one at the carboxyl terminal (FYRVRFLAKENVTQDREDNC) | 10.43 ± 3.34,** % | 0.8 ± 0.22 g | 1053.55 ± 175.83 mm^3 | 6.19 ± 1.42,*** % | 25.04 ± 6.01,** % | 16.86 ± 7.90,*** % | 23.71 ± 4.86,* % |
| N27: SEQ ID NO: 1 with addition of one amino acid at the carboxyl terminal and PEG modification at the carboxyl terminal (YRVRFLAKENVTQDAEDNC-{PEG}; reading uncertain) | 8.40 ± 2.44,** % | 0.95 ± 0.22 g | 1059.51 ± 161.22 mm^3 | 21.24 ± 3.73,* % | 37.20 ± 6.23,** % | 39.99 ± 3.19,** % | 12.53 ± 3.88,** % |
| N28: SEQ ID NO: 1 with deletion of positions 1-2 and 18 and PEG modification at the amino terminal ({PEG}-VRFLAKENVTQDAED; reading uncertain) | 14.83 ± 5.38,* % | 0.81 ± 0.24 g | 1055.02 ± 222.45 mm^3 | 11.32 ± 5.61,** % | 17.20 ± 6.23,*** % | 12.25 ± 8.40,*** % | 11.24 ± 3.52,*** % |
| N29: SEQ ID NO: 1 with deletion of positions 1-5 and 15-18 and PEG modification at the amino terminal ({PEG}-LAKENVTQD; reading uncertain) | 19.15 ± 3.04,* % | 0.82 ± 0.22 g | 949 ± 227.4 mm^3 | 13.73 ± 3.29,** % | 20.55 ± 3.73,*** % | 10.62 ± 8.97,*** % | 8.07 ± 1.79,*** % |
| N30: SEQ ID NO: 1 with deletion of positions 1-5 and 15-18 and PEG modification at the carboxyl terminal (LAKENVTQD-{PEG}; reading uncertain) | 14.34 ± 4.06,* % | 0.9 ± 0.22 g | 913.9 ± 204.07 mm^3 | 15.77 ± 2.33,*** % | 24.57 ± 3.19,*** % | 16.60 ± 7.85,*** % | 8.75 ± 3.35,*** % |
| N31: SEQ ID NO: 1 with deletion of positions 3, 4, 11 and 15-18 and PEG modification at the carboxyl terminal (YRFLAKENTQD-{PEG}; reading uncertain) | 9.27 ± 2.23,** % | 0.71 ± 0.16 g | 900.88 ± 255.61 mm^3 | 10.49 ± 3.13,*** % | 24.44 ± 8.15,** % | 13.64 ± 7.59,*** % | 7.17 ± 1.67,*** % |
| N32: SEQ ID NO: 1 with deletion of positions 1-3, addition of one amino acid and PEG modification at the carboxyl terminal (RFLAKENVTQDAEDNC-{PEG}; reading uncertain) | 14.18 ± 2.82,** % | 0.88 ± 0.25 g | 984.03 ± 184.86 mm^3 | 17.55 ± 3.48,** % | 28.06 ± 8.55,** % | 15.49 ± 8.35,*** % | 11.70 ± 2.95,*** % |
